Reference: PubChem BioAssay AID1963828 (Molecular Pharmacology Branch, DTP, NCI, 2024)

System: 991263-137-R1-J2-PDC complex spheroid viability
Assay: Anticancer human tumor 991263-137-R1-J2-PDC patient-derived colon adenocarcinoma cell line growth inhibition [POLQ]
Details: for IC50: curve of first compound; for viability, T/C: stronger effect = lower value
Procedure, shortened: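 Growth inhibition in 3D: complex spheroids (tumor PDC, HUVEC, MSC) treated with POLQ inhibitor combinations; where Cmax unknown, highest tested concentration 10 microM, except SN-38 at 1 microM.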

[1] = second compound 0.0316 µM, first compound 0.0316 µM
[2] = second compound 0.0316 µM, first compound 0.1 µM
[3] = second compound 0.0316 µM, first compound 0.316 µM
[4] = second compound 0.0316 µM, first compound 1 µM
[5] = second compound 0.0316 µM, first compound 3.16 µM
[6] = second compound 0.0316 µM, first compound 10 µM
[7] = second compound 0.1 µM, first compound 0.0316 µM
[8] = second compound 0.1 µM, first compound 0.1 µM
[9] = second compound 0.1 µM, first compound 0.316 µM
[10] = second compound 0.1 µM, first compound 1 µM
[11] = second compound 0.1 µM, first compound 3.16 µM
[12] = second compound 0.1 µM, first compound 10 µM
[13] = second compound 0.316 µM, first compound 0.0316 µM
[14] = second compound 0.316 µM, first compound 0.1 µM
[15] = second compound 0.316 µM, first compound 0.316 µM
[16] = second compound 0.316 µM, first compound 1 µM
[17] = second compound 0.316 µM, first compound 3.16 µM
[18] = second compound 0.316 µM, first compound 10 µM
[19] = second compound 1 µM, first compound 0.0316 µM
[20] = second compound 1 µM, first compound 0.1 µM
[21] = second compound 1 µM, first compound 0.316 µM
[22] = second compound 1 µM, first compound 1 µM
[23] = second compound 1 µM, first compound 3.16 µM
[24] = second compound 1 µM, first compound 10 µM
[25] = second compound 3.16 µM, first compound 0.0316 µM
[26] = second compound 3.16 µM, first compound 0.1 µM
[27] = second compound 3.16 µM, first compound 0.316 µM
[28] = second compound 3.16 µM, first compound 1 µM
[29] = second compound 3.16 µM, first compound 3.16 µM
[30] = second compound 3.16 µM, first compound 10 µM
[31] = second compound 10 µM, first compound 0.0316 µM
[32] = second compound 10 µM, first compound 0.1 µM
[33] = second compound 10 µM, first compound 0.316 µM
[34] = second compound 10 µM, first compound 1 µM
[35] = second compound 10 µM, first compound 3.16 µM
[36] = second compound 10 µM, first compound 10 µM
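Further: spheroids exposed to compounds for 7 days before readout.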
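Wherever viability, T/C is given: 100% = DMSO vehicle control viability.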

For CCc1cc2c(N3CCc4c(cc(Cn5ccnc5)cc4-c4cn(C)nc4C(F)(F)F)C3=O)ccnc2c(OC)n1 + COC1C(OC(N)=O)C(O)C(Oc2ccc3c(O)c(NC(=O)c4ccc(O)c(CC=C(C)C)c4)c(=O)oc3c2C)OC1(C)C, the IC50 (second compound 0.0316 µM) was > 10 µM, the IC50 (second compound 0.1 µM) was > 10 µM and the IC50 (second compound 0.316 µM) was > 10 µM. The IC50 (second compound 1 µM) was > 10 µM, the IC50 (second compound 3.16 µM) was > 10 µM and the IC50 (second compound 10 µM) was > 10 µM. The viability, T/C [1] was 99.5%, the viability, T/C [2] was 104% and the viability, T/C [3] was 110%. It also gave a viability, T/C [4] of 87.6%, a viability, T/C [5] of 102% and a viability, T/C [6] of 86.7%. The viability, T/C [7] was 104%, the viability, T/C [8] was 110% and the viability, T/C [9] was 87.4%. It also gave a viability, T/C [10] of 100%, a viability, T/C [11] of 90.8% and a viability, T/C [12] of 81%. For the same molecule, the viability, T/C [13] was 105%, the viability, T/C [14] was 108% and the viability, T/C [15] was 97.1%. It also gave a viability, T/C [16] of 104%, a viability, T/C [17] of 95.4% and a viability, T/C [18] of 99.9%. The viability, T/C [19] was 101%, the viability, T/C [20] was 107% and the viability, T/C [21] was 93.9%. The viability, T/C [22] was 86.3%, the viability, T/C [23] was 102% and the viability, T/C [24] was 90.7%. The viability, T/C [25] was 99.2%, the viability, T/C [26] was 122% and the viability, T/C [27] was 113%. It also gave a viability, T/C [28] of 96.4%, a viability, T/C [29] of 106% and a viability, T/C [30] of 107%. For the same molecule, the viability, T/C [31] was 113%, the viability, T/C [32] was 106% and the viability, T/C [33] was 108%. For the same molecule, the viability, T/C [34] was 109%, the viability, T/C [35] was 101% and the viability, T/C [36] was 91.3%.

In the case of COc1cc2cc(C(=O)CCC(=O)O)sc2cc1OC + COC1C(OC(N)=O)C(O)C(Oc2ccc3c(O)c(NC(=O)c4ccc(O)c(CC=C(C)C)c4)c(=O)oc3c2C)OC1(C)C, the IC50 (second compound 0.0316 µM) is reported as > 10 µM, the IC50 (second compound 0.1 µM) is reported as > 10 µM and the IC50 (second compound 0.316 µM) is reported as > 10 µM. For the same molecule, the IC50 (second compound 1 µM) was > 10 µM, the IC50 (second compound 3.16 µM) was > 10 µM and the IC50 (second compound 10 µM) was > 10 µM. The viability, T/C [1] was 97%, the viability, T/C [2] was 109% and the viability, T/C [3] was 103%. For the same molecule, the viability, T/C [4] was 83.6%, the viability, T/C [5] was 89.7% and the viability, T/C [6] was 95.1%. It also gave a viability, T/C [7] of 99.9%, a viability, T/C [8] of 105% and a viability, T/C [9] of 99.7%. For the same molecule, the viability, T/C [10] was 90.4%, the viability, T/C [11] was 116% and the viability, T/C [12] was 83%. The viability, T/C [13] was 119%, the viability, T/C [14] was 130% and the viability, T/C [15] was 112%. The viability, T/C [16] was 110%, the viability, T/C [17] was 94% and the viability, T/C [18] was 96.8%. For the same molecule, the viability, T/C [19] was 108%, the viability, T/C [20] was 107% and the viability, T/C [21] was 115%. The viability, T/C [22] was 110%, the viability, T/C [23] was 91.9% and the viability, T/C [24] was 90.2%. For the same molecule, the viability, T/C [25] was 114%, the viability, T/C [26] was 97.9% and the viability, T/C [27] was 90.2%. The viability, T/C [28] was 118%, the viability, T/C [29] was 121% and the viability, T/C [30] was 80.5%. It also gave a viability, T/C [31] of 117%, a viability, T/C [32] of 112% and a viability, T/C [33] of 109%. The viability, T/C [34] was 97.7%, the viability, T/C [35] was 126% and the viability, T/C [36] was 88.7%.

With C=CC(=O)N1CCN(c2nc(=O)n(-c3c(C)ccnc3C(C)C)c3nc(-c4c(O)cccc4F)c(F)cc23)C(C)C1 (stereo unspecified) + COC1C(OC(N)=O)C(O)C(Oc2ccc3c(O)c(NC(=O)c4ccc(O)c(CC=C(C)C)c4)c(=O)oc3c2C)OC1(C)C the IC50 (second compound 0.0316 µM) was > 10 µM, the IC50 (second compound 0.1 µM) was > 10 µM and the IC50 (second compound 0.316 µM) was > 10 µM. For the same molecule, the IC50 (second compound 1 µM) was > 10 µM, the IC50 (second compound 3.16 µM) was > 10 µM and the IC50 (second compound 10 µM) was > 10 µM. It also gave a viability, T/C [1] of 114%, a viability, T/C [2] of 123% and a viability, T/C [3] of 115%. It also gave a viability, T/C [4] of 103%, a viability, T/C [5] of 104% and a viability, T/C [6] of 93.3%. The viability, T/C [7] was 108%, the viability, T/C [8] was 129% and the viability, T/C [9] was 115%. The viability, T/C [10] was 115%, the viability, T/C [11] was 114% and the viability, T/C [12] was 95.5%. The viability, T/C [13] was 115%, the viability, T/C [14] was 124% and the viability, T/C [15] was 109%. The viability, T/C [16] was 98.8%, the viability, T/C [17] was 133% and the viability, T/C [18] was 99.9%. For the same molecule, the viability, T/C [19] was 107%, the viability, T/C [20] was 106% and the viability, T/C [21] was 110%. It also gave a viability, T/C [22] of 120%, a viability, T/C [23] of 115% and a viability, T/C [24] of 119%. For the same molecule, the viability, T/C [25] was 98.8%, the viability, T/C [26] was 110% and the viability, T/C [27] was 109%. It also gave a viability, T/C [28] of 114%, a viability, T/C [29] of 104% and a viability, T/C [30] of 122%. It also gave a viability, T/C [31] of 88.3%, a viability, T/C [32] of 124% and a viability, T/C [33] of 123%. For the same molecule, the viability, T/C [34] was 109%, the viability, T/C [35] was 117% and the viability, T/C [36] was 104%.
